Source: ChEMBL document CHEMBL1201862, “PubChem BioAssay data set” (2004)
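Where inhibition never reached the appropriate level, the endpoint shown equals the highest concentration tested. Otherwise, values were interpolated linearly from a five-concentration, 48-hour dose response in 96-well plates. GI50 = concentration required for 50% inhibition of growth.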 Activity calls are given as the source filed them. No stated cut-off is given here; in the data, active = GI50 up to about 1.1 µM and inactive = higher.

Legend:
Assay in all cases: DTP human tumour cell line panel, 48 h
KM12 = system: KM12
UACC-62 = system: UACC-62
UO-31 = system: UO-31
NCI-H522 = system: NCI-H522
SK-MEL-2 = system: SK-MEL-2
MOLT-4 = system: MOLT-4
IGROV-1 = system: IGROV-1
SR = system: SR
SN12C = system: SN12C
TK-10 = system: TK-10
MDA-MB-231 = system: MDA-MB-231
A549 = system: A549
SF-268 = system: SF-268
SNB-75 = system: SNB-75
Malme-3M = system: Malme-3M
MDA-MB-435 = system: MDA-MB-435
NCI-H226 = system: NCI-H226
OVCAR-3 = system: OVCAR-3
OVCAR-5 = system: OVCAR-5
HT-29 = system: HT-29

CN1CCN(C(=S)N(C(=O)c2ccco2)C2CCCCC2)CC1
GI50 (KM12): > 100 µM (inactive) | GI50 (UACC-62): > 100 µM (inactive) | GI50 (UO-31): > 100 µM (inactive) | GI50 (NCI-H522): > 100 µM (inactive) | GI50 (SK-MEL-2): > 100 µM (inactive) | GI50 (MOLT-4): > 10 µM (inactive) | GI50 (IGROV-1): > 100 µM (inactive) | GI50 (SR): > 100 µM (inactive) | GI50 (SN12C): > 100 µM (inactive) | GI50 (TK-10): > 100 µM (inactive) | GI50 (MDA-MB-231): > 100 µM (inactive) | GI50 (A549): > 100 µM (inactive) | GI50 (SF-268): > 100 µM (inactive) | GI50 (SNB-75): 50.7 µM (inactive) | GI50 (Malme-3M): > 100 µM (inactive) | GI50 (MDA-MB-435): > 100 µM (inactive) | GI50 (NCI-H226): > 100 µM (inactive) | GI50 (OVCAR-3): > 100 µM (inactive) | GI50 (OVCAR-5): > 100 µM (inactive) | GI50 (HT-29): > 100 µM (inactive)

C=C(C)C(=O)O[C@H]1C/C(CO)=C/CCC(=C)C(OC(C)=O)[C@H]2OC(=O)C(=C)[C@H]12 (stereo not given in full)
GI50 (KM12): 14.7 µM (inactive) | GI50 (UACC-62): 10.2 µM (inactive) | GI50 (UO-31): 5.19 µM (inactive) | GI50 (NCI-H522): 3.45 µM (inactive) | GI50 (SK-MEL-2): 7.18 µM (inactive) | GI50 (MOLT-4): 1.96 µM (inactive) | GI50 (IGROV-1): 17.5 µM (inactive) | GI50 (SR): 3.51 µM (inactive) | GI50 (SN12C): 13.4 µM (inactive) | GI50 (TK-10): > 10 µM (inactive) | GI50 (MDA-MB-231): 11.1 µM (inactive) | GI50 (A549): 19.1 µM (inactive) | GI50 (SF-268): 2 µM (inactive) | GI50 (SNB-75): 2.35 µM (inactive) | GI50 (Malme-3M): 3.96 µM (inactive) | GI50 (MDA-MB-435): 4.61 µM (inactive) | GI50 (NCI-H226): 40.8 µM (inactive) | GI50 (OVCAR-3): 6.44 µM (inactive) | GI50 (OVCAR-5): 38.5 µM (inactive) | GI50 (HT-29): 5.86 µM (inactive)

O=[N+]([O-])c1ccc2c(c1)/C(=N/N=C1c3ccccc3Cc3ccccc31)c1cc([N+](=O)[O-])cc([N+](=O)[O-])c1-2
GI50 (KM12): 2.47 µM (inactive) | GI50 (UACC-62): 2.62 µM (inactive) | GI50 (UO-31): 2.05 µM (inactive) | GI50 (NCI-H522): 1.63 µM (inactive) | GI50 (SK-MEL-2): 9.18 µM (inactive) | GI50 (MOLT-4): 1.91 µM (inactive) | GI50 (IGROV-1): 1.55 µM (inactive) | GI50 (SR): 4.61 µM (inactive) | GI50 (SN12C): 1.67 µM (inactive) | GI50 (TK-10): 4.29 µM (inactive) | GI50 (MDA-MB-231): 2.62 µM (inactive) | GI50 (A549): 9.4 µM (inactive) | GI50 (SF-268): 2.51 µM (inactive) | GI50 (SNB-75): 2.81 µM (inactive) | GI50 (Malme-3M): 2.79 µM (inactive) | GI50 (MDA-MB-435): 1.79 µM (inactive) | GI50 (NCI-H226): 13.4 µM (inactive) | GI50 (OVCAR-3): 1.69 µM (inactive) | GI50 (OVCAR-5): 2.75 µM (inactive) | GI50 (HT-29): 1.97 µM (inactive)

O=C1CC(c2ccccc2Cl)C2(C(=O)NC(=S)NC2=O)C(c2ccccc2Cl)C1 (stereo not given)
GI50 (KM12): 12.9 µM (inactive) | GI50 (UACC-62): 19.8 µM (inactive) | GI50 (UO-31): 46.5 µM (inactive) | GI50 (NCI-H522): 34.1 µM (inactive) | GI50 (SK-MEL-2): 37.1 µM (inactive) | GI50 (MOLT-4): 54.7 µM (inactive) | GI50 (IGROV-1): 25.9 µM (inactive) | GI50 (SR): 44 µM (inactive) | GI50 (SN12C): 25.9 µM (inactive) | GI50 (TK-10): 0.0302 µM (active) | GI50 (MDA-MB-231): 27.2 µM (inactive) | GI50 (A549): 20.8 µM (inactive) | GI50 (SF-268): 19 µM (inactive) | GI50 (SNB-75): 69.8 µM (inactive) | GI50 (Malme-3M): 1.56 µM (inactive) | GI50 (MDA-MB-435): 14.3 µM (inactive) | GI50 (NCI-H226): 28.6 µM (inactive) | GI50 (OVCAR-3): 26.5 µM (inactive) | GI50 (OVCAR-5): 42.1 µM (inactive) | GI50 (HT-29): 74 µM (inactive)

O=C1c2ccccc2-c2nnc3c(c21)Cc1ccccc1C3
GI50 (KM12): > 10 µM (inactive) | GI50 (UACC-62): > 10 µM (inactive) | GI50 (UO-31): > 10 µM (inactive) | GI50 (NCI-H522): > 10 µM (inactive) | GI50 (SK-MEL-2): > 10 µM (inactive) | GI50 (MOLT-4): > 10 µM (inactive) | GI50 (IGROV-1): > 10 µM (inactive) | GI50 (SR): > 10 µM (inactive) | GI50 (SN12C): > 10 µM (inactive) | GI50 (TK-10): > 10 µM (inactive) | GI50 (MDA-MB-231): > 10 µM (inactive) | GI50 (A549): > 10 µM (inactive) | GI50 (SF-268): > 10 µM (inactive) | GI50 (SNB-75): 2.43 µM (inactive) | GI50 (Malme-3M): > 10 µM (inactive) | GI50 (MDA-MB-435): > 10 µM (inactive) | GI50 (NCI-H226): > 10 µM (inactive) | GI50 (OVCAR-3): > 10 µM (inactive) | GI50 (OVCAR-5): > 10 µM (inactive) | GI50 (HT-29): > 10 µM (inactive)

Cc1cc(O)c2c(c1)C(=O)C=C(Br)C2=O
GI50 (KM12): 27.2 µM (inactive) | GI50 (UACC-62): 16.6 µM (inactive) | GI50 (UO-31): 15.5 µM (inactive) | GI50 (NCI-H522): 2.94 µM (inactive) | GI50 (SK-MEL-2): 17.1 µM (inactive) | GI50 (MOLT-4): 0.52 µM (active) | GI50 (IGROV-1): > 43.7 µM (inactive) | GI50 (SR): 1.3 µM (inactive) | GI50 (SN12C): 16.4 µM (inactive) | GI50 (TK-10): 16.4 µM (inactive) | GI50 (MDA-MB-231): 16.9 µM (inactive) | GI50 (A549): 30.3 µM (inactive) | GI50 (SF-268): 30.5 µM (inactive) | GI50 (SNB-75): 16.8 µM (inactive) | GI50 (Malme-3M): 7.69 µM (inactive) | GI50 (MDA-MB-435): 14.5 µM (inactive) | GI50 (NCI-H226): 19.2 µM (inactive) | GI50 (OVCAR-3): 16.7 µM (inactive) | GI50 (OVCAR-5): 16.1 µM (inactive) | GI50 (HT-29): 21.1 µM (inactive)
